From patent US20050019386A1 (priority 2001, published 2005)

Columns and labels:
[1] = tested on: ovarian carcinoma (human) on a nude mouse; assay: Oral application, tumour mass of human ovarian carcinoma on nude mouse; type: in vivo; details: oral form of administration, Taxol 50 mg bolus
[2] = tested on: two human glioblastoma in a nude model; details: free form, 12.5 mg/kg/4 days; cited from earlier work

## CC(=O)O[C@H]1C(=O)[C@@]2(C)[C@H]([C@H](OC(=O)c3ccccc3)[C@]3(O)C[C@H](OC(=O)[C@H](O)[C@@H](NC(=O)c4ccccc4)c4ccccc4)C(C)=C1C3(C)C)[C@]1(OC(C)=O)CO[C@@H]1C[C@@H]2O [unencapsulated taxol, paclitaxel]
[1]
  effectivity determined on the basis of the tumour mass: hardly being reduced
[2]
  growth of the tumour: significant reduction of the growth of the tumour
